Experimental findings from patent publication US9446093B2, “Injectable aqueous ophthalmic composition and method of use therefor” (Alcon Research Ltd., priority 2009, dated 2016) are described below.

A short description of the data set: pKa, charge and solubility of the amine groups of the polymer.

In the case of Poly-L-lysine, the “pKa value of the amine groups” value was “approximately 10.5”.
